pIC50: −log10 of the molar value. Read-outs that look alike come from different tables or passages of the source.

The target of one assay is LRRK2[G2019S] (Homo sapiens (Human), UniProt Q5S007, G2019S). In words: LRRK2 enzyme kinase assay, G2019S. The assay is classed as biochemical.
A further assay addresses wild type LRRK2 (Homo sapiens (Human), UniProt Q5S007). In words: LRRK2 enzyme kinase assay, wild type. The assay is classed as biochemical.
The subject of assay [1] is LRRK2. The conditions noted are these: G2019S LRRK2 transgenic mice, oral dosing; cited from earlier work.
Assay [2] deals with LRRK2 (Mus musculus (Mouse), UniProt Q5S006). In words: Pharmacodynamic study, LRRK2 Ser910/Ser935 phosphorylation in mouse kidney, spleen and brain. The assay is classed as in vivo.
Chain of LRRK2 (Mus musculus (Mouse), UniProt Q5S006) (Q5S006 whole entry, looked up): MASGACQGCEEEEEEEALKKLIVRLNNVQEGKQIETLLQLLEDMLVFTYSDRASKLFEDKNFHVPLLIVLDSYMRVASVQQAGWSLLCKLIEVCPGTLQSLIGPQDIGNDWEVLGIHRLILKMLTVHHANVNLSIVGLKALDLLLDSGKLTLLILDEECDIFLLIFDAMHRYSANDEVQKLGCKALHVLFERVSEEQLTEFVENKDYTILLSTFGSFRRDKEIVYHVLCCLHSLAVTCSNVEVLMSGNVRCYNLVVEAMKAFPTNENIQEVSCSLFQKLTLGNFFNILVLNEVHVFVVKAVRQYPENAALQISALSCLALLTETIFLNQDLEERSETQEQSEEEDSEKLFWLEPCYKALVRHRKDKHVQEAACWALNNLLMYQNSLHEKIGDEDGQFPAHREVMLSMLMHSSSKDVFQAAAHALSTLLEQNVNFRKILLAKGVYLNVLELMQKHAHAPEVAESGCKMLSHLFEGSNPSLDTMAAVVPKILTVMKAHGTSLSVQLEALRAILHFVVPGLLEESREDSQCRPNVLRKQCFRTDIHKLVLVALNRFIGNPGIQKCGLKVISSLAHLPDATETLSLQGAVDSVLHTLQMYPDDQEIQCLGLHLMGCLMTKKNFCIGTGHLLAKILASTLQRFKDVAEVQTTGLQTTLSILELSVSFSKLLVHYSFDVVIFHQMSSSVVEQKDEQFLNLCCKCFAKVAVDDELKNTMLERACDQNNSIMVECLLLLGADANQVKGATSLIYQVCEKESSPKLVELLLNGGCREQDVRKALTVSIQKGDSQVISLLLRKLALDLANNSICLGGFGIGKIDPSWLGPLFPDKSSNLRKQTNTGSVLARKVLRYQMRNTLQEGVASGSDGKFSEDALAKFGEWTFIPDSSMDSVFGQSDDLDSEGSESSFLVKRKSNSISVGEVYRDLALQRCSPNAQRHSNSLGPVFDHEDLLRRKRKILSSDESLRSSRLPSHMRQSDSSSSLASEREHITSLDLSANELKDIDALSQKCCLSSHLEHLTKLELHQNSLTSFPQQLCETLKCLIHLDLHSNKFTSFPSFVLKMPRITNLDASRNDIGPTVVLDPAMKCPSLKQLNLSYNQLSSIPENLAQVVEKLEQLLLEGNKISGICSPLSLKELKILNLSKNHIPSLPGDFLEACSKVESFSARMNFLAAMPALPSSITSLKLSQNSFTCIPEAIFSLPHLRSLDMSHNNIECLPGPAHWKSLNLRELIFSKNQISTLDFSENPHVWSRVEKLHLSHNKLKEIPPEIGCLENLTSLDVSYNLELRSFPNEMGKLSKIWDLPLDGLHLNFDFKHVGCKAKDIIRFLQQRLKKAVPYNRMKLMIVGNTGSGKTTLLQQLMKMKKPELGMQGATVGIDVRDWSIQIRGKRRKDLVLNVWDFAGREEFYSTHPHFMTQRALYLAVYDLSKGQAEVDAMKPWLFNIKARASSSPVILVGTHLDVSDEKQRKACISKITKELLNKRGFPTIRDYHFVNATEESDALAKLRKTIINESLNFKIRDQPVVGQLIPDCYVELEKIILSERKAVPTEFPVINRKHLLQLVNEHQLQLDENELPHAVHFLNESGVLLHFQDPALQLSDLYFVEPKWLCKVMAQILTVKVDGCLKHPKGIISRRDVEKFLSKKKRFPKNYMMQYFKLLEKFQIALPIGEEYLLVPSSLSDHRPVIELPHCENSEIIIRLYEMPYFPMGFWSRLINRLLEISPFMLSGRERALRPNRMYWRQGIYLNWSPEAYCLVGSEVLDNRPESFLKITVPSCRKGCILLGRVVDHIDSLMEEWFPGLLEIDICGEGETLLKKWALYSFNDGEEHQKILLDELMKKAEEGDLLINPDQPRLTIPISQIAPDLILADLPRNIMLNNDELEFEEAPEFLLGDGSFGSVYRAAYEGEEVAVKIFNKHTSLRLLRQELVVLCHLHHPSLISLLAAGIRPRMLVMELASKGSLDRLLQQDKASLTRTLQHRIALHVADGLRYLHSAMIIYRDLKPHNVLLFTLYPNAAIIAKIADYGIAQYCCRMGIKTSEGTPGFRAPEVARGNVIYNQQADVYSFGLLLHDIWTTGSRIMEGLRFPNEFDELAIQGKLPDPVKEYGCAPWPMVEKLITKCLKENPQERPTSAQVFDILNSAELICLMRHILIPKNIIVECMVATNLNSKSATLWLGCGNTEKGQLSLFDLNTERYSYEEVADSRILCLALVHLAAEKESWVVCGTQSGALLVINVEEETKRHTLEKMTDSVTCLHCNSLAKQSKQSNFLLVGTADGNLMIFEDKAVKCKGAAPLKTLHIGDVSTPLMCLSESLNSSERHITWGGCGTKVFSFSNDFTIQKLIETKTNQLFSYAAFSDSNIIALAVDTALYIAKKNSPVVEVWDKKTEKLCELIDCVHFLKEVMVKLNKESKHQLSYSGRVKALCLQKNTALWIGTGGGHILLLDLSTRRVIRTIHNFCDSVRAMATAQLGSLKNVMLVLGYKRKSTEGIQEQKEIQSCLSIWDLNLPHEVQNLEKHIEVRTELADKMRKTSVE
Assay [3] deals with GST-LRRK2[G2019S](1,326-2,527) (Homo sapiens (Human), UniProt Q5S007, G2019S). Description: Nictide peptide kinase assay, 100 μM ATP. The conditions noted are these: 20 μM Nictide. The assay is classed as biochemical. How it is done: (§1) Assay procedures are further discussed in Section 4 herein.
Chain of GST-LRRK2[G2019S](1,326-2,527) (Q5S007 1326-2527 G2019S): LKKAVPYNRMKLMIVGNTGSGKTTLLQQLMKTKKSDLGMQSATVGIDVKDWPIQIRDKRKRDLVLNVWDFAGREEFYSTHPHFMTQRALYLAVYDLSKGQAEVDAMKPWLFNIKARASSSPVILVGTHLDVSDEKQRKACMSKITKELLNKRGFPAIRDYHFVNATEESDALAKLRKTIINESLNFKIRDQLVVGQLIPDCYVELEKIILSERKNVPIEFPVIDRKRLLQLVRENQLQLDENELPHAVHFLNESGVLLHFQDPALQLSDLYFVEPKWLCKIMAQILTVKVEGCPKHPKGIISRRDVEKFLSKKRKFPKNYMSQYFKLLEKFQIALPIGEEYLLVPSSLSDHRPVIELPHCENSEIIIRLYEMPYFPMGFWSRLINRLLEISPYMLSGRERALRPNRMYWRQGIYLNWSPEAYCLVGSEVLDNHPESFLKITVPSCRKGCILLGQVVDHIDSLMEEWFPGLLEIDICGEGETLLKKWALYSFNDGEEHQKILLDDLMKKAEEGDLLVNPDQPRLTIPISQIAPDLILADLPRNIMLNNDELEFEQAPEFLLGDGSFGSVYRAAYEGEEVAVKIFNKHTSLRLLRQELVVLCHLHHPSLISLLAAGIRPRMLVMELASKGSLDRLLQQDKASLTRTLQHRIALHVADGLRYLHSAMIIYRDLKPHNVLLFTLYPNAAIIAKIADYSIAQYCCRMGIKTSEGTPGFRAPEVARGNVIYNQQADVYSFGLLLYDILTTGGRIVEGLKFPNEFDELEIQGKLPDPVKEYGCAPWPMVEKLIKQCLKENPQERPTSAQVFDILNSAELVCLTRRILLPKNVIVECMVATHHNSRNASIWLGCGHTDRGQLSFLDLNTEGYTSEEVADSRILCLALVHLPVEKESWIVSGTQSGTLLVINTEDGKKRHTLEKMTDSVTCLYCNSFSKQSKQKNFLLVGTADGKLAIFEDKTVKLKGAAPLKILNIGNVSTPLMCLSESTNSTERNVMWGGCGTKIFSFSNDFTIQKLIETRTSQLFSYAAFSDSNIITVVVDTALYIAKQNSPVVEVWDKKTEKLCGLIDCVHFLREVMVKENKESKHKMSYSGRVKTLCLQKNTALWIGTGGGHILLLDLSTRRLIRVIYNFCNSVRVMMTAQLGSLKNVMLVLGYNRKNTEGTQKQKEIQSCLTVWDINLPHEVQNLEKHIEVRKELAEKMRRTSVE
(§2) Samples were washed extensively and the incorporation of [γ-32P]ATP into Nictide was quantified by Cerenkov counting. IC50 values were calculated with GraphPad Prism using non-linear regression analysis.

The target of assay [4] is GST-LRRK2[G2019S + A2016T](1,326-2,517) (Homo sapiens (Human), UniProt Q5S007, A2016T/G2019S). In words: Nictide peptide kinase assay, 100 μM ATP. The following applies: 20 μM Nictide. The assay is classed as biochemical. The protocol: as §1, §2
Chain of GST-LRRK2[G2019S + A2016T](1,326-2,517) (Q5S007 1326-2527 A2016T/G2019S): as the sequence (Q5S007 1326-2527 G2019S) above, with A691T counted along it
The target of assay [5] is GST-LRRK2[A2016T](1326-2517) (Homo sapiens (Human), UniProt Q5S007, A2016T). Description: Nictide peptide kinase assay, 100 μM ATP. The assay is classed as biochemical. The following applies: 20 μM Nictide. The protocol:
as §1, §2

Assay [6] has as its target GST-LRRK2(1,326-2,517) wild-type (Homo sapiens (Human), UniProt Q5S007). In words: Nictide peptide kinase assay, 100 μM ATP. The assay is classed as biochemical. The following applies: 20 μM Nictide. The protocol:
as §1, §2

The mark [7] stands for this setting: Table 1, ATP at Km 36 μm, read-out: Enzyme IC50 wt.
[8] abbreviates: Table 3, read-out: Enzyme IC50 WT.

Chain of wild type LRRK2 (Q5S007 1326-2527): as the sequence (Q5S007 1326-2527 G2019S) above, with S694G counted along it
Chain of LRRK2[G2019S] (Q5S007 1326-2527 G2019S): as the sequence (Q5S007 1326-2527 G2019S) above
Chain of GST-LRRK2(1,326-2,517) wild-type (Q5S007 1326-2527): as the sequence (Q5S007 1326-2527 G2019S) above, with S694G counted along it
Chain of GST-LRRK2[A2016T](1326-2517) (Q5S007 1326-2527 A2016T): as the sequence (Q5S007 1326-2527 G2019S) above, with A691T, S694G counted along it

As to `COc1cc(C(=O)N2CCOCC2)ccc1Nc1nc(OC)c2cc[nH]c2n1` [Compound 9, (3-methoxy-4-((4-methoxy-7H-pyrrolo[2,3-d]pyrimidin-2-yl)amino)phenyl) (morpholino)methanone], the pIC50 on LRRK2[G2019S] (Table 1, ATP at Km 112 μm) was 7.02; on wild type LRRK2 (setting [7]) it was 7.87.
`COc1cc(C(=O)N2CCOCC2)ccc1Nc1ncc2cc[nH]c2n1` [Compound 10]: the pIC50 is 7.40 on LRRK2[G2019S] (Table 1, ATP at Km 112 μm) and 7.47 at wild type LRRK2 (setting [7]).
As to `COCCNc1nc(Nc2ccc(C(=O)N3CCOCC3)cc2OC)nc2[nH]ccc12` [Compound 11], the pIC50 is 8.52 against LRRK2[G2019S] (Table 1, ATP at Km 112 μm) and 8.40 on wild type LRRK2 (setting [7]).
The corresponding values for `CCNc1nc(Nc2ccc(C(=O)N3CCOCC3)cc2OC)nc2[nH]ccc12` [Compound 12] are 8.60 and 8.96.
For the molecule `CCCNc1nc(Nc2ccc(C(=O)N3CCOCC3)cc2OC)nc2[nH]ccc12` [Compound 13], the negative logarithm of the IC50 (pIC50) against LRRK2[G2019S] (Table 1, ATP at Km 112 μm) was 8.62; on wild type LRRK2 (setting [7]) it was 8.80.
Consider `COc1cc(C(=O)N2CCOCC2)ccc1Nc1nc(NCC2CCCO2)c2cc[nH]c2n1` (stereo not shown) [Compound 14], for which the negative-log IC50 (pIC50) was 8.36 against LRRK2[G2019S] (Table 1, ATP at Km 112 μm) and 8.48 on wild type LRRK2 (setting [7]).
Taken in the same sequence, the figures for `COc1cc(C(=O)N2CCOCC2)ccc1Nc1nc(NC2CC2)c2cc[nH]c2n1` [Compound 15] were 8.33 and 8.62.
As to `CNc1nc(Nc2cc(F)c(C(=O)N3CCOCC3)cc2OC)nc2[nH]ccc12` [Compound 16], the pIC50 against LRRK2[G2019S] (Table 1, ATP at Km 112 μm) is 8.15; at wild type LRRK2 (setting [7]), 8.68.
For the molecule `COc1cc(C(=O)N2CCOCC2)ccc1Nc1ncc2c(Cl)c[nH]c2n1` [Compound 17], the negative-log IC50 (pIC50) against LRRK2[G2019S] (Table 1, ATP at Km 112 μm) was 6.97; at wild type LRRK2 (setting [7]) it was 6.80.
As for `CCNc1nc(Nc2ccc(C(=O)N3CCOCC3)cc2OC)nc2[nH]cc(Cl)c12` [Compound 19], the pIC50 was 8.36 against LRRK2[G2019S] (Table 1, ATP at Km 112 μm) and 8.85 at wild type LRRK2 (setting [7]).
With `CCCNc1nc(Nc2ccc(C(=O)N3CCOCC3)cc2OC)nc2[nH]cc(Cl)c12` [Compound 20], the negative logarithm of the IC50 (pIC50) is 7.91 at LRRK2[G2019S] (Table 1, ATP at Km 112 μm) and 8.11 at wild type LRRK2 (setting [7]).
As for `CNc1nc(Nc2ccc(C(=O)N3CCOCC3)cc2OC)nc2[nH]cnc12` [Compound 21, (3-methoxy-4-((6-(methylamino)-9H-purin-2-yl)amino)phenyl)(morpholino) methanone], the results for the negative-log IC50 (pIC50) at LRRK2[G2019S] (Table 3) and at wild type LRRK2 (setting [8]) were 7.36 and 7.46, respectively.
With `COc1cc(C(=O)N2CCOCC2)ccc1Nc1nc(OC)c2nc[nH]c2n1` [Compound 22, (3-methoxy-4-((6-methoxy-9H-purin-2-yl)amino)phenyl)(morpholino)methanone], the negative logarithm of the IC50 (pIC50) against LRRK2[G2019S] (Table 3) and at wild type LRRK2 (setting [8]) was 8.52 in each case.
Consider `COc1cc(C(=O)N2CCOCC2)ccc1Nc1nc(OC)c2cn[nH]c2n1` [Compound 24, (3-methoxy-4-((4-methoxy-1H-pyrazolo[3,4-d]pyrimidin-6-yl)amino)phenyl) (morpholino)methanone], for which the pIC50 is 7.73 against LRRK2[G2019S] (Table 3) and 7.71 on wild type LRRK2 (setting [8]).
Regarding `CCNc1nc(Nc2cc(F)c(C(=O)N3CCOCC3)cc2OC)ncc1C(F)(F)F` [GNE7915, reference compound], the “reduction of LRRK2 activity in brain (Ser935 phosphorylation)” value (“reduction of LRRK2 activity in brain” for short) in the assay on LRRK2 [1] is given as “significantly reduce LRRK2 activity in the brain”. For the same molecule, the “dephosphorylation of Ser935 of LRRK2 in kidney, spleen and brain” value at LRRK2 [2] (100 mg/kg, intraperitoneal) was “near complete dephosphorylation of Ser935 of LRRK2”. At LRRK2 [2] (doses 10, 30, 50, 100 mg/kg), the “dose at which complete inhibition in brain was observed” value is listed as 100 mg/kg.
Turning to `O=C(Nc1cccnc1)c1cc(-c2ccnc(F)c2)ccc1OCc1ccccc1` [GSK2578215A], the pIC50 was 8.05 in assay [3], 7.21 in assay [4], 7.09 in assay [5] and 7.96 in assay [6].
`CNc1nc(Nc2ccc(C(=O)N3CCOCC3)cc2OC)ncc1Cl` [HG-10-102-01]: the “reduction of LRRK2 activity in brain” value in the assay with LRRK2 [1] is on record as “significantly reduce LRRK2 activity in the brain”.
On to `COc1cc(C(=O)N2CCC(N3CCN(C)CC3)CC2)ccc1Nc1ncc2c(n1)N(C)c1ccccc1C(=O)N2C` [LRRK2-IN-1], for which the pIC50 in assay [3] is 8.22; in assay [4], 5.51; in assay [5] it was 5.61; in assay [6] it was 7.89.
As for `N#Cc1cccc(-c2c[nH]c3ncnc(N4CCOCC4)c23)c1` [PF-06447474], in the assay with LRRK2 [1], the “reduction of LRRK2 activity in brain” value was “capable of reducing LRRK2 activity in the brain”.
Regarding “(3-methoxy-4-((4-(methylamino)-1H-pyrazolo[3,4-d]pyrimidin-6-yl)amino)phenyl)(morpholino)methanone [Compound 23]”, the pIC50 on LRRK2[G2019S] (Table 3) was 8.40; on wild type LRRK2 (setting [8]), 7.94.
